Consider eleven compounds from EP2150534B1, “ISOQUINOLINONE DERIVATIVES AS NK3 ANTAGONISTS” (H. Lundbeck A/S, priority 2007, dated 2008).

Experiment [1] concerns the target T1, human NK3 receptor (Homo sapiens, UniProt P29371).
T1 construct: expressed in transfected cells; membranes prepared from them
T1 sequence (P29371 1-465): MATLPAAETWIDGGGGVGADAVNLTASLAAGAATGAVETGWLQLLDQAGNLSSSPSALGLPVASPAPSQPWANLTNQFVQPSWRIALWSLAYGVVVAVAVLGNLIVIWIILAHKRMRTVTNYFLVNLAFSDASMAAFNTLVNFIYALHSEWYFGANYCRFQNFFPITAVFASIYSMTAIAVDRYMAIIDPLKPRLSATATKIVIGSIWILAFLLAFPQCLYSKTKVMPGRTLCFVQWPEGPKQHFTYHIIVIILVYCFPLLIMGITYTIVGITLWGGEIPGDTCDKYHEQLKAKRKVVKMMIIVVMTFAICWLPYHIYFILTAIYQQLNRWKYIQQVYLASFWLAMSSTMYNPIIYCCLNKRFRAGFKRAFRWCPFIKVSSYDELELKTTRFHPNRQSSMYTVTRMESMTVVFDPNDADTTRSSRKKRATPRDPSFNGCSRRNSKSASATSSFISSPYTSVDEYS
Kind of experiment: NK3 receptor binding assay (SPA-based competition binding with 125I-NKB, membranes of BHK cells). The procedure:
Membranepreparation: BHK cells stably expressing the human NK3 receptor were seeded in harvesting plates in Dulbeccos MEM containing GlutaMax (862 mg/l), 1 mM sodium pyruvate, 10% fetal calf serum, 1% Pen/Strep, I mg/ml G418 and were grown at 34 °C in a humidified atmosphere containing 10% CO2. To increase receptor expression, 10 µM trichotatin A was added to the media 24 hours before harvest of the cells at a confluency of app 90%. Prior to the harvesting, the cells were washed twice with PBS without Mg^2+ og Ca^2+ and subsequently scrapped of in 10 ml PBS pr harvesting plate. The cells suspension were centrifuged at 1500xG in three minutes before resuspension in 15 mM Tris-HCl pH 7,5 buffer containing 2 mM MgCl2; 0,3 mM EDTA and 1 mM EGTA (buffer A). The cell suspention was homogenised and subsequently centrifuged at 40000xG in 30 minutes. The membrane-pellet was resuspended in buffer A containing 250 mM sucrose, alliquoted and stored at - 80°C.
Affinity assay description: The assay was performed as a SPA-based competition-binding assay in a 50 mM Tris pH 7.4 assay buffer containing 120 mM NaCl, 3 mM MnCl2, 40 µg/ml bacitracin, 2 µg/ml Chymostatin, 1 µg/ml Phosphoramidon and 4 µg/ml Leupeptin. App 0.02 nM ^125I-NKB was mixed with test compounds before addition of 4 µg of the homogenised NK3 membrane preparation and 0,025 mg SPA beads in a total volume of 60 µl. The assay plate was subsequently under agitation incubated for 90 min at RT. The plate was centrifugated 10 minutes at 500xG and counted in a topcounter 5 minuttes pr well.
The non-specific binding constituted app 5 % of the total binding.
Data points were expressed in percent of the specific binding of ^125I-NKB and the IC50 values (concentration causing 50 percent inhibition of ^125I-NKB specific binding) were determined by non-linear regression analysis using a sigmoidal variable slope curve fitting. The dissociation constant (Ki) were calculated from the Cheng Prusoff equation (Ki = IG50/(1+(L/KD))), where the concentration of free radioligand L is approximated to the concentration of added ^125I-NKB in the assay (app 0,02 nM).
The KD of ^125I-NKB was determined to be 0,7 nM from three independent saturation assays each performed with duplicate determinations. Bmax was app 2 pmol/mg.

Experiment [2] addresses T1, human NK3 receptor. The experiment is described as follows: NK3 receptor efficacy and potency assay (FLIPR Calcium 4 assay, BHK cells; agonist and antagonist mode versus NKB). In kind it is cell-based. As to conditions: read-out: Potency cIC50. The procedure: BHK cells stably expressing the human NK3 receptor were seeded in 100 µl media in black walled clear-base 96-wells plates (Costar) aiming at a confluency of 95-100% at the day of assay. The assay was performed according to the FLIPR Calcium 4 Assay kit (Molecular Devices). At the day of the assay, the media was removed and the cells were washed once with the HBSS buffer (Hanks BSS buffer, pH 7,4 containing 20 mM Hepes) before 100 µl of a solution of the calcium assay reagent dissolved in the HBSS buffer containing 2,5 mM probinicid was added to the cells. The plates were incubated for 60 min at 34°C, 10% CO2 before use in the FLIPR for examination of fluorescence.
For efficacy and potency evaluation of compounds, these were diluted in HBSS buffer prior to test. For test of agonist activity, 25 µl of the diluted compound solution was added and the plate was analyzed for 5 minutes in the FLIPR. […] The plates were subsequently analyzed for 5 minutes before the assay was terminated. The maximal increase in fluorescence over background following each ligand addition was determined.

Setting [3] is: table of Example 10, affinity obtained as described in Example 9, read-out: Affinity Ki.
The mark [4] stands for this setting: Ki for the NK3 receptor, table of Example 9, 125I-NKB competition binding, read-out: Ki.

One may read the Ki as a dissociation constant, usually derived from enzyme kinetics or from competition with a known ligand.

Like-named read-outs stand apart in the source and are kept apart here.

Take `Cc1c(C(=O)N[C@H](c2cccc(F)c2)C2CCC2)c2cccc(Cl)c2c(=O)n1-c1ccccc1` [Example 1bh, 8-Chloro-3-methyl-1-oxo-2-phenyl-1,2-dihydro-isoquinoline-4-carboxylic acid [(S)-cyclobutyl-(3-fluoro-phenyl)-methyl]-amide]: in experiment [1] (setting [3]), the Ki was found to be 21 nM. Besides, the IC50 in experiment [2] came to 81 nM.

As to `Cc1c(C(=O)N[C@@H](c2cccc(F)c2)C2CC2)c2cccc(Cl)c2c(=O)n1-c1ccccc1` [Example 1bl, 8-Chloro-3-methyl-1-oxo-2-phenyl-1,2-dihydro-isoquinoline-4-carboylic acid [(R)-cyclopropyl-(3-fluoro-phenyl)-methyl]-amide], in experiment [1] (setting [3]), the Ki came out at 470 nM. For `Cc1c(C(=O)N[C@H](c2ccccc2)C2CCC2)c2cccc(Cl)c2c(=O)n1-c1ccccc1` [Example 1bn, 8-Chloro-3-methyl-1-oxo-2-phenyl-1,2-dihydro-isoquinoline-4-carboxylic acid ((S)cyclobutyl-phenyl-methyl)-amide], the Ki in experiment [1] (setting [3]) amounted to 23 nM. Besides, in experiment [2], the IC50 came to 23 nM. Take `CC[C@H](NC(=O)c1c(C)n(-c2ccccc2)c(=O)c2c(Cl)cccc12)c1ccccc1` [Example 1i, 8-Chloro-3-methyl-1-oxo-2-phenyl-1,2-dihydro-isoquinoline-4-carboxylic acid ((S)-1-phenyl-propyl)-amide]: the inhibitory constant (Ki) in experiment [1] (setting [3]) is 41 nM. In addition, the IC50 in experiment [2] stood at 130 nM.

Turning to `Cc1c(C(=O)N[C@H](c2cccc(F)c2)C2CC2)c2cccc(Cl)c2c(=O)n1-c1ccccc1` [Example 1t, 8-Chloro-3-methyl-1-oxo-2-phenyl-1,2-dihydro-isoquinoline-4-carboxylic acid [(S)-cyclopropyl-(3-fluoro-phenyl)-methyl]-amide], in experiment [1] (setting [3]), the Ki is 27 nM. Further, the IC50 in experiment [2] came out at 44 nM. As to `CC[C@H](NC(=O)c1c(CN(C)C)n(-c2ccccc2)c(=O)c2ccccc12)c1ccccc1` [Example 2a, 3-Dimethylarrtinomethyl-1-oxo-2 phenyl-1,2-dihydro-isoquinoline-4-carboxylic acid ((S)-1-phenyl-propyl)-amide], the Ki in experiment [1] (setting [4]) turned out to be 180 nM. Turning to `CC[C@H](NC(=O)c1c(CN2CCCCCC2)n(-c2ccccc2)c(=O)c2ccccc12)c1ccccc1` [Example 2ah, 3-Azepan-1-ylmethyl-1-oxo-2-phenyl-1,2-dihydro-isoquinoline-4-carboxylic acid ((S)-1-phenyl-propyl)-amide], the Ki in experiment [1] (setting [3]) was found to be 290 nM. The IC50 in experiment [2] was found to be 360 nM.

Consider `CC[C@H](NC(=O)c1c(CN2CCN(CCN3CCOCC3)CC2)n(-c2ccccc2)c(=O)c2ccccc12)c1ccccc1` [Example 2bm, 3-[4-(2-Morpholin-4-yl-ethyl)-piperazin-1-ylmethyl]-1-oxo-2-phenyl-1,2-dihydro-isoquinoline-4-carboxylic acid ((S)-1-phenyl-propyl)-amide], for which the inhibition constant Ki in experiment [1] (setting [4]) amounted to 8.2 nM; in experiment [1] (setting [3]), 8.8 nM. In addition, the IC50 in experiment [2] was 14 nM. Regarding `CC[C@H](NC(=O)c1c(CN2CCN(CCN3CCCC3)CC2)n(-c2ccccc2)c(=O)c2ccccc12)c1ccccc1` [Example 2bq, 1-Oxo-2-phenyl-3-[4-(2-pyrrolidin-1-yl-ethyl)-pipcrazin-1-ylmethyl]-1,2-dihydro-isoquinolinc-4-carboxylic acid ((S)-1-phenyl-propyl)-amide], the Ki in experiment [1] (setting [3]) came to 160 nM. The IC50 in experiment [2] came to 220 nM. For `CC[C@H](NC(=O)c1c(CN2CCC(CCN3CCOCC3)CC2)n(-c2ccccc2)c(=O)c2ccccc12)c1ccccc1` [Example 2cw, 3-[4-(2-Morpholin-4-yl-ethyl)-piperidin-1-ylmethyl]-1-oxo-2-phenyl-1,2-dihydro-isoquinoline-4-carboxylic acid ((S)-1-phenyl-propyl)-amide], the Ki in experiment [1] (setting [3]) amounted to 8.4 nM. For the same compound, the IC50 in experiment [2] was 45 nM. For `Cc1c(C(=O)NN(c2ccccc2)c2ccccc2)c2ccccc2c(=O)n1-c1ccccc1` [Example 5a, 3-Methyl-1-oxo-2 phenyl-1,2-dihydro-isoquinoline-4-carboxylic acid N',N'-diphenyl-hydrazide], the inhibitory constant (Ki) in experiment [1] (setting [4]) worked out at 55 nM.
